According to ChEMBL document CHEMBL3885861, “Open TG-GATES”:

Species: Rattus norvegicus
Assay: Open TG-GATES - Regimen: Single
Type: toxicity, organism-based, Sprague-Dawley
Design: regimen Single, gender Male, age 6 weeks
Conditions: in vivo, po, 0 mg/kg, route gavage, dose level Control; for APTT / Bas / Eos / Fbg / Hb / Ht / Lym / MCH / MCHC / MCV / Mono / Neu / PT / Plat / RBC / Ret / WBC: tissue Blood; for KIDNEY_L / KIDNEY_R / KIDNEY_TOTAL: tissue Kidney; for LIVER: tissue Liver; for A/G / ALP / ALT / AST / BUN / CRE / Ca / Cl / DBIL / GLC / IP / LDH / Na / PL / RALB / TBIL / TC / TG / TP / gamma-GTP: tissue Plasma

## NC(N)=Nc1nc(CSCCC(N)=NS(N)(=O)=O)cs1 [FAMOTIDINE]
3 h
  TERMINAL_BW: 217.3 g
  APTT: 20.1 s
  Bas: 0%
  Eos: 1%
  Fbg: 209.8 mg/dL
  Hb: 13.2 g/dL
  Ht: 37.2%
  Lym: 64.8%
  MCH: 22.3 pg
  MCHC: 35.5%
  MCV: 62.6 fL
  Mono: 3.8%
  Neu: 26.8%
  PT: 12.5 s
  Plat: 110.5 x10_4/uL
  RBC: 593.6 x10_4/ul
  Ret: 8.2%
  WBC: 81.2 x10_2/uL
  KIDNEY_L: 1 g
  KIDNEY_R: 1 g
  KIDNEY_TOTAL: 1.9 g
  LIVER: 10.4 g
  A/G: 1.7
  ALP: 809.6 IU/L
  ALT: 39 IU/L
  AST: 71 IU/L
  BUN: 10.8 mg/dL
  CRE: 0.4 mg/dL
  Ca: 10.8 mg/dL
  Cl: 103.2 meq/L
  DBIL: 0.078 mg/dL
  GLC: 197.2 mg/dL
  IP: 9.1 mg/dL
  LDH: 196.4 IU/L
  Na: 140.8 meq/L
  PL: 139 mg/dL
  RALB: 3.4 g/dL
  TBIL: 0.1 mg/dL
  TC: 77.4 mg/dL
  TG: 55.8 mg/dL
  TP: 5.4 g/dL
  gamma-GTP: 1.4 IU/L
6 h
  TERMINAL_BW: 212.9 g
  APTT: 20 s
  Bas: 0%
  Eos: 0.8%
  Fbg: 218.6 mg/dL
  Hb: 13.4 g/dL
  Ht: 37.6%
  Lym: 79.4%
  MCH: 22 pg
  MCHC: 35.7%
  MCV: 61.7 fL
  Mono: 2.4%
  Neu: 15.2%
  PT: 12.4 s
  Plat: 119.6 x10_4/uL
  RBC: 610.2 x10_4/ul
  Ret: 6.9%
  WBC: 94.2 x10_2/uL
  KIDNEY_L: 1 g
  KIDNEY_R: 1 g
  KIDNEY_TOTAL: 2 g
  LIVER: 9.3 g
  A/G: 1.5
  ALP: 928.8 IU/L
  ALT: 32.6 IU/L
  AST: 64.2 IU/L
  BUN: 9.2 mg/dL
  CRE: 0.4 mg/dL
  Ca: 10.7 mg/dL
  Cl: 102.6 meq/L
  DBIL: 0.068 mg/dL
  GLC: 193.8 mg/dL
  IP: 9 mg/dL
  LDH: 193.6 IU/L
  Na: 140 meq/L
  PL: 142.8 mg/dL
  RALB: 3.3 g/dL
  TBIL: 0.1 mg/dL
  TC: 80.6 mg/dL
  TG: 60 mg/dL
  TP: 5.5 g/dL
  gamma-GTP: 1 IU/L
9 h
  TERMINAL_BW: 209.9 g
  APTT: 19.9 s
  Bas: 0%
  Eos: 1%
  Fbg: 228.2 mg/dL
  Hb: 13.3 g/dL
  Ht: 36.7%
  Lym: 65.4%
  MCH: 22.9 pg
  MCHC: 36.2%
  MCV: 63.3 fL
  Mono: 2.4%
  Neu: 29%
  PT: 12.7 s
  Plat: 118.2 x10_4/uL
  RBC: 580.8 x10_4/ul
  Ret: 7.5%
  WBC: 106.4 x10_2/uL
  KIDNEY_L: 1 g
  KIDNEY_R: 1 g
  KIDNEY_TOTAL: 2 g
  LIVER: 9.1 g
  A/G: 1.5
  ALP: 883.2 IU/L
  ALT: 28.4 IU/L
  AST: 56.8 IU/L
  BUN: 8.8 mg/dL
  CRE: 0.3 mg/dL
  Ca: 10.4 mg/dL
  Cl: 102.8 meq/L
  DBIL: 0.056 mg/dL
  GLC: 205.2 mg/dL
  IP: 9.4 mg/dL
  LDH: 138.6 IU/L
  Na: 140 meq/L
  PL: 133.8 mg/dL
  RALB: 3.2 g/dL
  TBIL: 0.1 mg/dL
  TC: 70.6 mg/dL
  TG: 46.6 mg/dL
  TP: 5.4 g/dL
  gamma-GTP: 0.8 IU/L
24 h
  TERMINAL_BW: 226.6 g
  APTT: 19.6 s
  Bas: 0%
  Eos: 1%
  Fbg: 232.4 mg/dL
  Hb: 13.3 g/dL
  Ht: 37.3%
  Lym: 78.4%
  MCH: 22.5 pg
  MCHC: 35.7%
  MCV: 63.2 fL
  Mono: 2.8%
  Neu: 15.8%
  PT: 11.9 s
  Plat: 126.9 x10_4/uL
  RBC: 590 x10_4/ul
  Ret: 6.6%
  WBC: 84.4 x10_2/uL
  KIDNEY_L: 1.1 g
  KIDNEY_R: 1.1 g
  KIDNEY_TOTAL: 2.1 g
  LIVER: 11 g
  A/G: 1.5
  ALP: 1002.2 IU/L
  ALT: 34.2 IU/L
  AST: 65.4 IU/L
  BUN: 13.4 mg/dL
  CRE: 0.4 mg/dL
  Ca: 10.7 mg/dL
  Cl: 102.6 meq/L
  DBIL: 0.088 mg/dL
  GLC: 186.4 mg/dL
  IP: 7.3 mg/dL
  LDH: 203.2 IU/L
  Na: 139.4 meq/L
  PL: 147.2 mg/dL
  RALB: 3.4 g/dL
  TBIL: 0.1 mg/dL
  TC: 81.8 mg/dL
  TG: 85.6 mg/dL
  TP: 5.7 g/dL
  gamma-GTP: 1 IU/L
